≈ marks a conversion by molar mass, not a printed value. Where “and” joins values, the source holds several entries; their conditions need not be identical. Equal entries are not always repeated.

The subject of data set [1] is Candida albicans KMM 455. The experiment in a line: Antimicrobial assay, growth inhibition (optical density). The format is cell-based. To be noted: Candida albicans, KMM455, 18 h, C. albicans, 18 h. On the procedure:
(§1) The Gram-positive bacterial Staphylococcus aureus ATCC 21027, Gram-negative bacterial Escherichia coli VKPM (B-7935), and yeast-like fungal Candida albicans KMM 455 strains were fermented on solid medium Mueller Hinton broth with agar (16.0 g/L) in a Petri dish at 37 °C for 24 h. The antimicrobial activity of the compound was tested at concentrations ranging from 100 µM and lower. The effect of the compound on bacterial growth was estimated as described by. Gentamicin and amphotericin B were used as positive controls against S. aureus, E. coli, and C. albicans, and a 1% dimethyl sulfoxide (DMSO) solution in PBS was used as a negative control. The optical density of the bacterial suspension after 18 h was measured at λ = 620 nm. The effect of the compound on biofilm formation for 18 h was tested using MTT reagent (Sigma-Aldrich, St. Louis, MO, USA) in accordance with. The optical density of the obtained solution was measured at λ = 570 nm. A Multiskan FS spectrophotometer (Thermo Scientific Inc., Beverly, MA, USA) was used for both assays. The results were calculated as percentages of the control data and presented as minimal concentrations reduced by 50% of growth or biofilm formation (MIC50).

The test system of data set [2] is Candida albicans KMM 455. In words: Biofilm formation assay (MTT). The class given is cell-based. To be noted: C. albicans, 18 h. On the procedure: as §1
The subject of data set [3] is Escherichia coli VKPM (B-7935). In words: Antimicrobial assay, growth inhibition (optical density). The class given is cell-based. The settings on record: E. coli, 18 h; for MIC50: Escherichia coli. On the procedure:
as §1

The test system of data set [4] is Staphylococcus aureus ATCC 21027. The data set is described as above. The format is cell-based. The settings on record: S. aureus, 18 h; for MIC50: Staphylococcus aureus, ATCC21027, 18 h. On the procedure:
as §1

Data set [5] has as its system Escherichia coli VKPM (B-7935). The experiment in a line: Biofilm formation assay (MTT). The class given is cell-based. To be noted: E. coli, 18 h. On the procedure: as §1
Data set [6] has as its system Staphylococcus aureus ATCC 21027. In words: Biofilm formation assay (MTT). The class given is cell-based. To be noted: S. aureus, 18 h. On the procedure:
as §1

In a further data set the test system is H9c2 cardiomyocytes. The experiment in a line: Cell viability assay (MTT). The format is cell-based, rat. An excerpt: (§2) Rat cardiomyocyte H9c2 cells were kindly provided by Prof. Dr. Gunhild von Amsberg from the Martini-Klinik Prostate Cancer Center, University Hospital Hamburg-Eppendorf, Hamburg, Germany. The human HaCaT keratinocyte cell line was kindly provided by Prof. N. Fusenig (Cancer Research Centre, Heidelberg, Germany). Non-cancerous human breast epithelial MCF-10A cells were kindly provided by Dr. Irina Zhitnyak (N. N. Blokhin National Medical Research Center of Oncology, Moscow, Russia). Human breast cancer MCF-7 HTB-22 and MDA-MB-231 cells were obtained from the ATTC (Manassas, VA, USA).
(§3) H9c2 and HaCaT cells were cultured in DMEM with 10% fetal bovine serum and 1% penicillin/streptomycin (BioloT, St. Petersburg, Russia). MCF-7 and MDA-MB-231 cells were cultured in MEM (BioloT, St. Petersburg, Russia) with 10% fetal bovine serum (FBS) and 1% penicillin/streptomycin (BioloT, St. Petersburg, Russia). MCF 10A cells were cultured in DMEM F12 medium (BioloT, St. Petersburg, Russia) supplemented with 20% FBS, 20 ng/mL hrEGF (Sci-Store, Moscow, Russia), and 1% penicillin/streptomycin (BioloT, St. Petersburg, Russia). All cells were cultured at 37 °C in a humidified atmosphere containing 5% CO2.
(§4) H9c2 cells were seeded at a concentration of 3 × 10^3 cells/well. MCF-10A, MCF-7, and MDA-MB-231 cells were seeded at 5 × 10^3 cells/well, and HaCaT cells were seeded at 1 × 10^4 cells/well. The experiments were initiated after 24 h.
(§5) Compounds at concentrations up to 100 µM were added to the wells for 24h or 48 h, and the viability of the cells was measured using an MTT (3-(4,5-dimethylthiazol-2-yl)-2,5-diphenyltetrazolium bromide) assay, which was performed according to the manufacturer’s instructions (Sigma-Aldrich, Munich, Germany). […] DMSO was used as a control. The results are presented as percentages of the control data.

Another data set has as its system HaCaT keratinocytes. The experiment in a line: Cell viability assay (MTT). The class given is cell-based, human.
Excerpt: as §2, §3, §4, §5

Data set [7] relates to MCF-10A breast epithelial cells. In words: Cell viability assay (MTT). The settings on record: MCF10A. The format is cell-based, human.
Excerpt: as §2, §3, §4, §5

In data set [8] the test system is MCF-7 breast cancer cells. In words: Cell viability assay (MTT). The class given is cell-based, human.
Excerpt: as §2, §3, §4, §5

For data set [9], the system named is MDA-MB-231 breast cancer cells. The experiment in a line: Cell viability assay (MTT). The format is cell-based, human.
Excerpt: as §2, §3, §4, §5

On to `C[C@@H]1[C@H](O)[C@@H](C)/C=C/C=C/C=C/C=C/C=C/C=C/C=C/[C@H](O[C@@H]2O[C@H](C)[C@@H](O)[C@H](N)[C@@H]2O)C[C@@H]2O[C@](O)(C[C@@H](O)C[C@@H](O)[C@H](O)CC[C@@H](O)C[C@@H](O)CC(=O)O[C@H]1C)C[C@H](O)[C@H]2C(=O)O` [Amphotericin B, reference compound], for which, in the data set on Candida albicans KMM 455 [1], the MIC50 – broadly, the lowest concentration that inhibits either 50% of growth or 50% of the strains tested, depending on the study – amounted to 1.18 ± 0.15 µM (≈ 1.09 µg/mL). The “Biofilm formation, MIC50” value in the data set with Candida albicans KMM 455 [2] came to 1.38 ± 0.14 µM.
Take `Cc1c(C)c(O)c2c(c1C)C(C)(O)OC2=O` (centres unmarked) [Compound 3, sclerolide]: the values for the MIC50 (against Candida albicans KMM 455 [1]; in data set [3]; in [4]) were > 100 µM, 21.1 µM (≈ 4.68 µg/mL) and 20.3 µM (≈ 4.52 µg/mL), respectively. The results for the “Growth inhibition, MIC50” value in [3] and in data set [4] were 21.07 ± 2.11 µM and 20.34 ± 2.58 µM, respectively. The “Biofilm formation, MIC50” value in the data set on Candida albicans KMM 455 [2] is >100 µM; in data set [5], 43.51 µM and 43.51 ± 4.03 µM; in data set [6] it was 31.14 µM and 31.14 ± 2.34 µM. The cell viability with H9c2 cardiomyocytes (H9c2, 24 h, 1.0 µM) was 81.1 ± 3.2 % of control; with H9c2 cardiomyocytes (H9c2, 24 h, 10.0 µM), 88.7 ± 4.4 % of control; with H9c2 cardiomyocytes (H9c2, 24 h, 100.0 µM), 74.6 ± 8.3 % of control; in the data set with H9c2 cardiomyocytes (H9c2, 48 h, 1.0 µM) it was 102.0 ± 5.5 % of control; in the data set with H9c2 cardiomyocytes (H9c2, 48 h, 10.0 µM), 102.7 ± 6.7 % of control; in the data set on H9c2 cardiomyocytes (H9c2, 48 h, 100.0 µM) it was 62.5 ± 4.6 % of control. The cell viability in the data set on HaCaT keratinocytes (24 h, 1.0 µM) is 94.4 ± 5.9 % of control; with HaCaT keratinocytes (24 h, 10.0 µM), 100.2 ± 3.0 % of control; with HaCaT keratinocytes (24 h, 100.0 µM) it was 63.0 ± 8.6 % of control; in the data set with HaCaT keratinocytes (48 h, 1.0 µM) it was 96.8 ± 1.0 % of control; with HaCaT keratinocytes (48 h, 10.0 µM), 96.6 ± 4.1 % of control; in the data set on HaCaT keratinocytes (48 h, 100.0 µM) it was 69.4 ± 3.5 % of control. Also, the cell viability in data set [7] (24 h, 1.0 µM) is on record as 101.7 ± 1.3 % of control; in data set [7] (24 h, 10.0 µM), 92.2 ± 3.5 % of control; in data set [7] (24 h, 100.0 µM), 62.5 ± 2.2 % of control; in data set [7] (48 h, 1.0 µM) it was 101.6 ± 5.1 % of control; in [7] (48 h, 10.0 µM), 74.4 ± 2.4 % of control; in data set [7] (48 h, 100.0 µM), 47.5 ± 7.0 % of control. Also, the cell viability is on record as 107.2 ± 8.9 % of control in [8] (MCF-7, 24 h, 1.0 µM); 95.6 ± 2.4 % of control in data set [8] (MCF-7, 24 h, 10.0 µM); 70.2 ±5.5 % of control in data set [8] (MCF-7, 24 h, 100.0 µM); 83.8 ± 3.1 % of control in data set [8] (MCF-7, 48 h, 1.0 µM); 76.0 ± 2.6 % of control in data set [8] (MCF-7, 48 h, 10.0 µM); 55.1 ± 1.0 % of control in [8] (MCF-7, 48 h, 100.0 µM). Moreover, the cell viability was 99.8 ± 1.3 % of control in [9] (MDA-MB-231, 24 h, 1.0 µM); 100.6 ± 5.7 % of control in data set [9] (MDA-MB-231, 24 h, 10.0 µM); 68.6 ± 8.3 % of control in [9] (MDA-MB-231, 24 h, 100.0 µM); 107.6 ± 2.8 % of control in data set [9] (MDA-MB-231, 48 h, 1.0 µM); 99.0 ± 5.1 % of control in data set [9] (MDA-MB-231, 48 h, 10.0 µM); 60.9 ± 3.6 % of control in [9] (MDA-MB-231, 48 h, 100.0 µM). In addition, the decrease of viability in the data set with H9c2 cardiomyocytes (H9c2, at 100 µM, range given for H9c2 and HaCaT together) is recorded as 30.0–37.5%; in the data set with HaCaT keratinocytes (at 100 µM, range given for H9c2 and HaCaT together), 30.0–37.5%. For the same compound, the IC50 in data set [7] (Homo sapiens, MCF-10A, time not stated, read-out: half-maximal concentration (IC50), viability) is ~100 µM.
For the compound `CNC(C)C1CCC(N)C(OC2C(N)CC(N)C(OC3OCC(C)(O)C(NC)C3O)C2O)O1` (centres unmarked) [Gentamycin, reference compound], the MIC50 was found to be 5.03 ± 0.77 µM (≈ 2.4 µg/mL) in data set [3] and 4.52 ± 0.98 µM (≈ 2.16 µg/mL) in data set [4]. Moreover, the “Biofilm formation, MIC50” value in data set [5] was determined as 5.34 ± 0.50 µM; in [6], 4.34 ± 0.32 µM.

The record behind these values is PMC12471299, “Secondary Metabolites of the Marine Sponge-Derived Fungus Aspergillus subramanianii 1901NT-1.40.2 and Their Antimicrobial and Anticancer Activities” (Marine Drugs, 2025).
